Measurements taken from patent US20040176349A1, “Antibacterial composition” (priority 2001, published 2004).
Values after ≈ are worked out from the molar mass of the structure shown.

Experiments:
[1] = test system: enterococcal penicillin binding proteins (PBPs); experiment: Radiolabelled penicillin competition assay for PBP affinity; design: species or system Enterococcus; conditions: in words
Protocol: Further experiments were conducted in an attempt to determine the mechanism of the unexpected synergy between antibiotics (as exemplified by Ceftazidime) and compounds in accordance with general formula I or II (as exemplified by PFOB). The affinity of PFOB for enterococcal penicillin binding proteins (PBPs) was investigated using a conventional radiolabelling assay (Boulton & Orr 1983 “Detection of bacterial penicillin binding proteins and their role in the interpretation of the mode of action of beta-lactam antibiotics” In “Antibiotics: Assessment of antimicrobial activity and resistance” Eds. Denver & Quesnel. Society for […], Technical Series 18, pp161-182, Academic Press”). In this assay, the inner bacterial membrane containing the PBPs was extracted, exposed to differing concentrations of test agent (i.e. PFOB) and excess radiolabelled penicillin, followed by separation and visualisation of the PBPs using gel electrophoresis and fluorography.

E. faecalis SFZ = experiment: MIC, microbroth dilution (NCCLS), Table 1; assay type: cell-based; conditions: compound alone; E. faecalis SFZ, vancomycin-susceptible
Protocol: (§1) The minimum inhibitory concentration (MIC) of the compounds was determined using the microbroth dilution technique in accordance with NCCLS guidelines, employing Mueller-Hinton broth (National Committee for Clinical Laboratory Standards, NCCLS, 1995 “Methods for dilution antimicrobial susceptibility tests for bacteria that grow aerobically”—approved standard M7-A5).
(§2) The compounds were tested in isolation, at different concentrations.

E. hirae ATCC 10541 = experiment: MIC, microbroth dilution (NCCLS), Table 1; assay type: cell-based; conditions: compound alone; E. hirae ATCC 10541, vancomycin-susceptible
Protocol: as §1, §2

E. faecalis NCTC 5957 = experiment: MIC, microbroth dilution (NCCLS), Table 1; assay type: cell-based; conditions: compound alone; E. faecalis NCTC 5957, vancomycin-susceptible
Protocol: as §1, §2

E. faecalis 24592 = experiment: MIC, microbroth dilution (NCCLS), Table 1; assay type: cell-based; conditions: compound alone; E. faecalis 24592, vancomycin-susceptible
Protocol: as §1, §2

E. faecium NCTC 7171 = experiment: MIC, microbroth dilution (NCCLS), Table 1; assay type: cell-based; conditions: compound alone; E. faecium NCTC 7171, vancomycin-susceptible
Protocol: as §1, §2

E. faecalis Phillips = experiment: MIC, microbroth dilution (NCCLS), Table 1; assay type: cell-based; conditions: compound alone; E. faecalis Phillips, vancomycin-susceptible
Protocol: as §1, §2

VRE 1662 = experiment: MIC, microbroth dilution (NCCLS), Table 1; assay type: cell-based, Enterococcus; conditions: compound alone; VRE 1662, vancomycin-resistant
Protocol: as §1, §2

VRE 300 1562 = experiment: MIC, microbroth dilution (NCCLS), Table 1; assay type: cell-based, Enterococcus; conditions: compound alone; VRE 300 1562, vancomycin-resistant
Protocol: as §1, §2

VRE 300 1590 = experiment: MIC, microbroth dilution (NCCLS), Table 1; assay type: cell-based, Enterococcus; conditions: compound alone; VRE 300 1590, vancomycin-resistant
Protocol: as §1, §2

VRE 300 2043 = experiment: MIC, microbroth dilution (NCCLS), Table 1; assay type: cell-based, Enterococcus; conditions: compound alone; VRE 300 2043, vancomycin-resistant
Protocol: as §1, §2

Enterococcus strains = experiment: MIC against Enterococcus strains, summary of Example 1; assay type: cell-based; conditions: compound alone; all strains of Table 1; in words
Protocol: as §1, §2

E. faecalis ATCC 10541 = experiment: Checkerboard microdilution MIC with PFOB, Table 2; assay type: cell-based; conditions: E. faecalis ATCC 10541; alone
Text: The aim of the study was to detect any synergy between PFOB and the other antibiotics. For the purposes of the study, synergy was defined in accordance with the FIC (fractional inhibitory concentration) index, as disclosed by Lorian (1991, In “Antibiotics in Laboratory Medicine” 3rd edition, Eds. Williams & Wilkins; esp. p 434-443).

E.faecalis 78097 (van B) = experiment: Checkerboard microdilution MIC with PFOB, Table 2; assay type: cell-based; conditions: E.faecalis 78097 (van B); alone
Text: (§3) The aim of the study was to detect any synergy between PFOB and the other antibiotics. For the purposes of the study, synergy was defined in accordance with the FIC (fractional inhibitory concentration) index, as disclosed by Lorian (1991, In “Antibiotics in Laboratory Medicine” 3rd edition, Eds. Williams & Wilkins; esp. p 434-443). In essence, if the combination of test compounds gives at least a 4-fold reduction in the FIC value for each compound, then a synergy may be considered to exist (i.e. FIC of the combination <0.5=synergy; FIC 0.5-2.0=“indifference”; and FIC >2=antagonism).
(§4) In Table 2, results in the checkerboard indicating synergy are hatched, and specific optimum synergistic combinations are boxed.

E. faecalis ATCC 29212 = experiment: Checkerboard microdilution MIC with PFOB, Table 2; assay type: cell-based; conditions: E. faecalis ATCC 29212; alone
Text: as §3, §4

E. faecalis 5659 (vanA) = experiment: Checkerboard microdilution MIC with PFOB, Table 2; assay type: cell-based; conditions: E. faecalis 5659 (vanA); alone
Text: as §3, §4

[2] = test system: E. faecalis SFZ (vancomycin-sensitive isolate, VSE); experiment: Time-kill experiment (viable count); assay type: cell-based; conditions: FIG. 2, ceftazidime alone at 128 mg/L, PFOB alone at 64 mg/L
Text: FIG. 2 is a graph of Log viable count (cfu per ml) against time (in hours) for the VSE isolate in the presence or absence of the drugs. […] The isolates used in the Example are purely illustrative and not especially unusual.

For C[C@@H](O)[C@H]1C(=O)N2C(C(=O)O)=C(C(C)(C)CCCN)O[C@H]12 [(1′R, 5R, 6R)-2-(4-amino-1,1-dimethylbutyl)-6-(1′-hydroxyethyl) oxapenem-3-carboxylic acid], the “affinity for PBPs compared with clavulanic acid” value ([1]; FIG. 4A versus FIG. 4B) was “much higher affinity”, the “binding to PBPs in competition with radiolabelled penicillin” value ([1]; FIG. 4A, PFOB concentration of 3 mg/L) was “nearly all PBPs are bound by PFOB, except PBP3” and the MIC (E. faecalis SFZ) was 64 µg/mL (≈ 215 µM). For the same molecule, the MIC (E. hirae ATCC 10541) was 16 µg/mL (≈ 53.6 µM), the MIC (E. faecalis NCTC 5957) was 32 µg/mL (≈ 107 µM) and the MIC (E. faecalis 24592) was 32 µg/mL (≈ 107 µM). It also gave an MIC (E. faecium NCTC 7171) of 16 µg/mL (≈ 53.6 µM), an MIC (E. faecalis Phillips) of 32 µg/mL (≈ 107 µM) and an MIC (VRE 1662) greater than 128 µg/mL. For the same molecule, the MIC (VRE 300 1562) was 128 µg/mL (≈ 429 µM), the MIC (VRE 300 1590) was greater than 128 µg/mL and the MIC (VRE 300 2043) was 32 µg/mL (≈ 107 µM). The “activity in isolation against the Enterococcus strains tested” value (Enterococcus strains) was “no significant activity”, the “MIC (alone) of PFOB” value (E. faecalis ATCC 10541) was 16 µg/mL and the “MIC (alone) of PFOB” value (E.faecalis 78097 (van B)) was greater than 32 µg/mL. The “MIC (alone) of PFOB” value (E. faecalis ATCC 29212) was greater than 32 µg/mL, the “MIC (alone) of PFOB” value (E. faecalis 5659 (vanA)) was greater than 32 µg/mL and the “effect on growth (viable count, time-kill)” value [2] was “some inhibitory effect on growth”.
